Values quoted from earlier work as cited in patent US7858656B2, “Controlled release formulations containing an active ingredient, preferably melatonin and the method of preparation” (Ambros Pharma S.R.L., priority 2000, dated 2010).

Details: in various species, including man

- half-life of melatonin: 20 to 40 min
Compound: COc1ccc2[nH]cc(CCNC(C)=O)c2c1 [melatonin, N-acetyl-5-methoxytryptamine]
